Test results published in patent publication US20150309031A2, “COMPOSITIONS AND METHODS FOR PROGNOSIS AND TREATMENT OF CANCER” (NOVAZOI THERANOSTICS, priority 2013, published 2015).

Columns and labels:
Assay type in all cases: cell-based
HeLa cells [1] = test: subG1 (hypodiploid) fraction by flow cytometry, HeLa cells
Method: (§1) Trypsinized cells were resuspended in PBS at 10^6 cells/ml. Cells were then fixed by addition of ice-cold 70% ethanol. Ethanol-fixed cells were kept overnight at 4° C. before staining. Cells were pelleted and washed twice with PBS. Cell pellets were incubated for an hour at room temperature with mouse anti-MPM-2 antibody (Millipore, Mass., USA), followed by 1 h incubation with Alexa-488 anti-mouse secondary antibody (Life Technologies, NY, USA). Finally cells were washed, pelleted and resuspended in propidium iodide-containing isotonic buffer (0.1 mg/mL) and 0.5% Triton X-100. Cell cycle distribution was determined by flow cytometry using an LSR Fortessa Flow cytometer (BD Biosciences, CA, USA) and analyzed using Flowjo software (Tree Star, OR, USA). […] The duration, highest degree, and rapidity of onset of MA varied between drugs, drug concentrations, and cell lines (FIGS. 2A, 2B). In general, the maximum MA achieved was less pronounced in Nos- and PJ-treated cells (FIGS. 2A, 2B). Drug-induced onset of MA was corroborated by substantial increases in cyclin B1 levels in all cell lines (FIG. 2C). […] Instances where the subG1 fraction was elevated without cleaved caspase-3 may either represent caspase-independent cell death or the presence of hypodiploid cells whose fate is unclear.

PC3 cells = test: subG1 (hypodiploid) fraction by flow cytometry, PC3 cells
Method: as §1

[2] = test system: adult human dermal fibroblasts (HDF); test: subG1 (hypodiploid) fraction by flow cytometry, HDFs
[3] = test system: mammary fibrocystic (MCF10A) cells; test: subG1 (hypodiploid) fraction by flow cytometry, MCF10A cells; settings: for Peak subG1 percent over 48 h: MCF10A
HeLa cells [4] = test: Centrosome amplification (CA) by microscopy, HeLa cells
Method: Consequently, CA was assessed in cultures treated with different concentrations of declustering drugs for 6, 12, 18, or 24 h and untreated controls via microscopy. […] The peak percent CA detected over 24 h is shown in FIG. 6 (only statistically significant (P<0.05) increases over control values are represented in the Figures). Representative confocal micrographs of CA in interphase and mitotic cells, both control and drug treated, are depicted in FIG. 7. […] To better understand the “potency” of drug-induced CA with time, the average fold change in CA over controls over 24 h was assessed (FIG. 5A), whereby the extent of CA across time points (i.e., 6, 12, 18, and 24 h) was averaged and then divided by the extent of CA in control (i.e., 0 h). […] For Nos and BN, there was no major difference in CA levels in interphase versus mitotic cells.

MCF10A cells = test: Centrosome amplification (CA) by microscopy, MCF10A cells; settings: interphase and mitotic cells, over 24 h
Method: (§2) Consequently, CA was assessed in cultures treated with different concentrations of declustering drugs for 6, 12, 18, or 24 h and untreated controls via microscopy. Centrosomes were identified by γ-tubulin and centrin-2 colocalization at discrete foci. […] The peak percent CA detected over 24 h is shown in FIG. 6 (only statistically significant (P<0.05) increases over control values are represented in the Figures). Representative confocal micrographs of CA in interphase and mitotic cells, both control and drug treated, are depicted in FIG. 7. No significant correlations between the degree of CA (FIG. 5A) and the expression levels of PLK4, Cyclin E, and Aurora A were found (FIG. 4).
(§3) To determine whether the CA-inducing activity of declustering drugs is restricted to cancer cells, two non-malignant cell lines, mammary fibrocystic (MCF10A) cells and adult human dermal fibroblasts were treated with these drugs. Neither one of RBN, GF or PJ induced CA or cell death (Table 8) in these cell lines. […] In comparison, 10 and 25 μM RBN increased peak CA over controls in interphase cells (p<0.001 and p=0.001, respectively), with the lower concentration dramatically augmenting peak CA to 56% of cells versus 15% for the higher dose (FIG. 9B). Only 10 but not 25 μM RBN increased the extent of CA in mitotic cells, and this upregulation was only slight (10%, p=0.041).

[5] = test system: human dermal fibroblasts (HDFs); test: Centrosome amplification (CA) by microscopy, HDFs
Method: as §2, §3

231, HeLa and PC3 cells = test: Centrosome amplification (CA) by microscopy, all cancer cell lines tested
Method: as §2
To better understand the “potency” of drug-induced CA with time, the average fold change in CA over controls over 24 h was assessed (FIG. 5A), whereby the extent of CA across time points (i.e., 6, 12, 18, and 24 h) was averaged and then divided by the extent of CA in control (i.e., 0 h). All of the drugs at least doubled the peak extent of CA in all cell lines tested (FIG. 5A), although the final extent of CA could be small or large in magnitude depending on the initial centrosomal burden as shown in FIG. 4. […] The extent of CA was less in interphase cells, with maximum values of 31% and 87% for 10 and 25 μM RBN (FIG. 6A). […]

HDFs and MCF10A cells = test: Spindle multipolarity (MP) in non-malignant cell lines

reduced bromonoscapine [RBN]
Peak subG1 percent over 48 h (HeLa cells [1]; 10 μM): 54.1% | maximum subG1 fraction relative to control (HeLa cells [1]; 10 μM): 9 × control | Peak subG1 percent over 48 h (HeLa cells [1]; 25 μM): 75.6% | Peak subG1 percent over 48 h (PC3 cells; 10 μM): 80.7% | maximum subG1 fraction relative to control (PC3 cells; 10 μM): 8 × control | Peak subG1 percent over 48 h (PC3 cells; 25 μM): 73.0% | Peak subG1 percent over 48 h ([2]; 10 μM): 35.9% | Peak subG1 percent over 48 h ([2]; 25 μM): 39.9% | change of peak subG1 percent compared to controls (in words) ([3]; MCF10A cells): did increase peak SubG1 in MCF10A cells compared to controls | Peak subG1 percent over 48 h ([3]; 10 μM): 36.4% | Peak subG1 percent over 48 h ([3]; 25 μM): 44.0% | peak extent of CA in interphase cells (HeLa cells [4]; interphase, 10 μM): 30.7% | peak / final extent of CA in interphase cells (HeLa cells [4]; interphase, 25 μM): 48.1% | cells having CA, mitotic cells (HeLa cells [4]; 10 μM): 78% | fold increase of CA, mitotic cells (HeLa cells [4]; 10 μM): approximately 40 fold | cells having CA, mitotic cells (HeLa cells [4]; 25 μM): 42% | fold increase of CA, mitotic cells (HeLa cells [4]; 25 μM): ~20 fold | change of CA over control levels (in words) (MCF10A cells): significantly increased the peak extent of CA in interphase and mitotic MCF10A cells | peak CA in interphase cells ([5]; 10 μM): 56% | peak CA in interphase cells ([5]; 25 μM): 15% | extent of CA in mitotic cells ([5]; mitotic, 10 μM): 10% | induction of CA (231, HeLa and PC3 cells): induced CA in all three cell lines | induction of MP over control levels (HDFs and MCF10A cells): significantly induce MP over control levels
